These results are taken from ChEMBL document CHEMBL1201862, “PubChem BioAssay data set” (2004).

Among the test systems are ACHN; BT-549; CAKI-1; CCRF-CEM; COLO 205; DU-145; HCC 2998; HCT-116; HOP-62; Hs-578T; LOX IMVI; M14; MDA-N; MOLT-4; NCI-H460; OVCAR-4; OVCAR-5; SF-268; UACC-257; SR.
Assay in all cases: DTP human tumour cell line panel, 48 h

“And” between values parts separate entries of the source, which are not always exact repeats. Equal entries are not always repeated.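 Tested at 5 concentrations; 48 h exposure; 96-well plates; endpoints linearly interpolated, else capped at highest concentration. GI50 is the concentration that inhibits growth by half.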 The source made the active and inactive calls. Rule as the data show it: active = GI50 up to about 1.1 µM and inactive = higher.

As to `CCC1C(C#N)=C(N)OC2=C1C(=O)CC(C)(C)C2` (centres undefined), the GI50 with ACHN, with BT-549, in the experiment on CAKI-1, in the experiment with CCRF-CEM, in the experiment on COLO 205 and in the experiment with DU-145 was > 100 µM (inactive) in each case. In addition, the GI50 with HCC 2998, in the experiment with HCT-116, with HOP-62, in the experiment on Hs-578T, in the experiment with LOX IMVI and with M14 was > 100 µM (inactive) in each case. Moreover, the GI50 in the experiment with MDA-N, with MOLT-4, in the experiment with NCI-H460, with OVCAR-4, in the experiment with OVCAR-5 and in the experiment with SF-268 was > 100 µM (inactive) throughout. Also, in the experiment with UACC-257, the GI50 is 35.9 µM (inactive).
As for `O=c1oc2ccccc2cc1-c1cc2ccccn2c1`, the GI50 in the experiment with ACHN, in the experiment on BT-549, in the experiment on CAKI-1, in the experiment with CCRF-CEM, with COLO 205 and with DU-145 was > 100 µM (inactive) each time. Besides, the GI50 with HCT-116, with HOP-62, with Hs-578T, in the experiment on LOX IMVI, in the experiment on M14 and with MDA-N was > 100 µM (inactive) each time. Moreover, the GI50 in the experiment with MOLT-4, in the experiment with NCI-H460, in the experiment on OVCAR-4, in the experiment with OVCAR-5, in the experiment with SF-268 and in the experiment on UACC-257 was > 100 µM (inactive) throughout.
For the compound `O=C(O)CSCC(=O)Nc1ccc2cccc3c2c1CC3`, the GI50 in the experiment with ACHN, in the experiment with BT-549, in the experiment on CAKI-1, with CCRF-CEM, with COLO 205 and with DU-145 was > 100 µM (inactive) throughout. For the same compound, the GI50 in the experiment with HCC 2998, in the experiment with HCT-116, with HOP-62, in the experiment on Hs-578T, in the experiment with LOX IMVI and with M14 was > 100 µM (inactive) throughout. The GI50 with MDA-N, in the experiment with MOLT-4, in the experiment with OVCAR-4, with OVCAR-5, in the experiment on SF-268 and in the experiment with UACC-257 was > 100 µM (inactive) throughout.
`CC(=NNC(=S)Nc1ccccc1)c1cccc(C(C)=NNC(=S)Nc2ccccc2)n1`: the GI50 in the experiment with ACHN is 1.23 µM (inactive); with BT-549, 12.2 µM (inactive); with CAKI-1, 1.79 µM (inactive); with CCRF-CEM it was 1.74 µM (inactive); in the experiment with COLO 205 it was 2.48 µM (inactive); in the experiment on DU-145, > 20.1 µM (inactive). Also, the GI50 was 3.64 µM (inactive) in the experiment with HCC 2998; 3.32 µM (inactive) in the experiment with HCT-116; 2.11 µM (inactive) in the experiment with HOP-62; > 37.8 µM (inactive) in the experiment with Hs-578T; 2.24 µM (inactive) with LOX IMVI; 1.97 µM (inactive) with M14. The GI50 in the experiment on MDA-N was 14.1 µM (inactive); with MOLT-4, 2.29 µM (inactive); in the experiment on NCI-H460, 2.65 µM (inactive); in the experiment on OVCAR-4, 3.66 µM (inactive); in the experiment with OVCAR-5 it was > 22 µM (inactive); with UACC-257, 8.83 µM (inactive).
As to `CC(C)(C)OC(=O)NCC(CNC(=O)OC(C)(C)C)c1nc(C(N)=O)cs1`, the GI50 in the experiment on ACHN, with BT-549, in the experiment on CAKI-1, in the experiment with CCRF-CEM, in the experiment on COLO 205 and in the experiment on HCC 2998 was > 100 µM (inactive) in each case. Further, the GI50 in the experiment with HCT-116, in the experiment on HOP-62, in the experiment with Hs-578T, in the experiment on LOX IMVI, in the experiment with M14 and in the experiment with MDA-N was > 100 µM (inactive) in each case. The GI50 in the experiment with MOLT-4, in the experiment on NCI-H460, with OVCAR-4, with OVCAR-5, in the experiment on SR and in the experiment on UACC-257 was > 100 µM (inactive) throughout.
For `OC(c1cc2ccccc2[nH]1)C1(c2cccnc2)SCCCS1` (centres undefined), the GI50 in the experiment on ACHN is 86.5 µM (inactive); in the experiment on BT-549, 57.9 µM (inactive); in the experiment on CAKI-1, > 100 µM (inactive); with COLO 205, 61.4 µM (inactive); in the experiment on DU-145, > 100 µM (inactive); in the experiment on HCT-116, 59 µM (inactive). Moreover, the GI50 in the experiment with HOP-62 is 50.2 µM (inactive); in the experiment on Hs-578T, 41.3 µM (inactive); with LOX IMVI, 79.4 µM (inactive); with M14 it was 51.2 µM (inactive); with MDA-N, 52.2 µM (inactive); in the experiment with MOLT-4, 27.9 µM (inactive). For the same compound, the GI50 is 94.6 µM (inactive) with NCI-H460; 48.8 µM (inactive) in the experiment with OVCAR-4; 24.1 µM (inactive) in the experiment on OVCAR-5; 43.3 µM (inactive) in the experiment on SF-268; 41.8 µM (inactive) with SR; 52 µM (inactive) in the experiment with UACC-257.
`O=C1NC(=O)C(C(c2ccc(Cl)cc2)C2C(=O)NC(=O)NC2=O)C(=O)N1.c1ccncc1`: the GI50 in the experiment on ACHN, in the experiment with BT-549, with CAKI-1, in the experiment on CCRF-CEM, with COLO 205 and in the experiment on DU-145 was > 100 µM (inactive) in each case. The GI50 with HCT-116, in the experiment with HOP-62, in the experiment with Hs-578T, with LOX IMVI, with M14 and in the experiment on MDA-N was > 100 µM (inactive) throughout. Also, the GI50 in the experiment with MOLT-4, with NCI-H460, with OVCAR-4, with OVCAR-5 and in the experiment with UACC-257 was > 100 µM (inactive) throughout.
Turning to `COc1ncc(C#CC(=O)c2ccccc2)c(OC)n1`, the GI50 in the experiment with ACHN is 1.77 µM (inactive); in the experiment on BT-549, 2.17 µM (inactive); in the experiment with CAKI-1, 2.76 µM (inactive); in the experiment with CCRF-CEM it was 0.183 µM (active); with COLO 205, 1.99 µM (inactive); with DU-145, 8.07 µM (inactive). Besides, the GI50 with HCC 2998 was 6.12 µM (inactive); in the experiment with HCT-116, 4.95 µM (inactive); with HOP-62, 19.3 µM (inactive); in the experiment with Hs-578T it was 24.5 µM (inactive); with LOX IMVI, 0.815 µM (active); with M14 it was 2.22 µM (inactive). The GI50 was 1.71 µM (inactive) in the experiment with MDA-N; 0.679 µM (active) in the experiment on MOLT-4; 13.4 µM (inactive) with NCI-H460; 4.7 µM (inactive) with OVCAR-4; 5.04 µM (inactive) in the experiment on OVCAR-5; 10.4 µM (inactive) in the experiment on SF-268. In addition, the GI50 in the experiment on UACC-257 is 5.64 µM (inactive).
Turning to `CNCCCNc1c2ccccc2nc2cccc([N+](=O)[O-])c12`, the 50% growth inhibitory concentration (GI50) is 0.00251 µM (active) in the experiment on ACHN; 0.0023 µM (active) with BT-549; 0.00753 µM (active) in the experiment with CAKI-1; 0.00986 µM (active) in the experiment with CCRF-CEM; 0.0015 µM (active) in the experiment with COLO 205; 0.00378 µM (active) in the experiment on DU-145. In addition, the 50% growth inhibitory concentration (GI50) in the experiment on HCC 2998 was 0.00445 µM (active); in the experiment with HCT-116, 0.00242 µM (active); with HOP-62 it was 0.00373 µM (active); with Hs-578T it was 0.00299 µM (active); in the experiment on LOX IMVI, 0.00604 µM (active); with M14, 0.00433 µM (active). Also, the concentration for 50% growth inhibition (GI50) in the experiment with MDA-N was 0.0016 µM (active); in the experiment with MOLT-4, 0.00243 µM (active); in the experiment with NCI-H460 it was 0.00047 µM (active); in the experiment with OVCAR-4, 0.00174 µM (active); in the experiment with OVCAR-5 it was 0.00459 µM (active); in the experiment on SF-268, 0.00225 µM (active). The GI50 in the experiment on UACC-257 is 0.0189 µM (active).
For `O=c1[nH]nc(Cc2ccccc2)n1/N=C/c1ccc(/C=N/n2c(Cc3ccccc3)n[nH]c2=O)cc1`, the GI50 in the experiment with ACHN is > 100 µM (inactive); in the experiment with BT-549, > 100 µM (inactive); with CAKI-1 it was > 100 µM (inactive); with CCRF-CEM it was 23.8 µM (inactive); in the experiment with COLO 205, > 100 µM (inactive); with DU-145, > 100 µM (inactive). The GI50 was > 100 µM (inactive) in the experiment with HCT-116; 57.5 µM (inactive) with HOP-62; > 100 µM (inactive) with Hs-578T; > 100 µM (inactive) in the experiment with LOX IMVI; > 100 µM (inactive) in the experiment on M14; > 100 µM (inactive) in the experiment with MDA-N. Besides, the GI50 with MOLT-4 was 19.4 µM (inactive); in the experiment on NCI-H460, > 100 µM (inactive); in the experiment with OVCAR-4, > 100 µM (inactive); in the experiment on OVCAR-5 it was > 100 µM (inactive); in the experiment on SF-268, > 100 µM (inactive); in the experiment on UACC-257, > 100 µM (inactive).
Consider `c1ccc2[nH]c(-c3cscn3)nc2c1` [THIABENDAZOLE], for which the GI50 in the experiment with ACHN, in the experiment with BT-549, in the experiment with CCRF-CEM, in the experiment on COLO 205, in the experiment with DU-145 and in the experiment on HCC 2998 was > 100 µM (inactive) in each case. For the same compound, the GI50 in the experiment on HCT-116 was > 100 µM (inactive); with Hs-578T, > 100 µM (inactive); with LOX IMVI it was > 100 µM (inactive); with M14, > 100 µM (inactive); in the experiment on MDA-N, 50.4 µM (inactive); in the experiment with MOLT-4, > 100 µM (inactive). In addition, the GI50 with NCI-H460 was > 100 µM (inactive) and 54 µM (inactive); in the experiment on OVCAR-4, > 100 µM (inactive); in the experiment with OVCAR-5, > 100 µM (inactive); in the experiment with SF-268 it was > 100 µM (inactive); in the experiment on UACC-257 it was > 100 µM (inactive).
